{"source": "patent US20210115398A1", "about": "“CORNEAL TISSUE CULTURE SYSTEM AND CORNEAL TISSUE CULTURE METHOD THEREOF” (Chang Gung Memorial Hospital, Linkou, priority 2019, published 2021)", "key": {"[1]": {"tested_on": "damaged rabbit corneal endothelium layer", "assay": "Healing effect of the damaged corneal endothelium layer of the corneal tissue (Alizarin Red S staining)", "format": "cell-based", "settings": "20 μmol/L LPA", "experimental": "A polyvinylidene fluoride (PVDF) filter membrane with regularly punched-out holes was used to cover the rabbit corneal endothelium layer; exposing the inner damage zone (I) scraped with Cellulose Eye Spears. The rest area of the corneal endothelium layer was defined as the outer damage zone (O). The damaged corneal tissues were placed individually in the tissue culture dishes 100, cultivated with the tissue culture media (DMEM basal medium, 10% FBS, and 25 μg/mL gentamycin) added with 20 μmol/L LPA (Example) or without LPA (Comparative example), and incubated at 37° C. with 5% CO2, wherein a portion of the corneal epithelium layer of the rabbit corneal tissues faced toward the first direction A and contacted with air and the corneal endothelium layer contacted with the tissue culture media. The inner damage zone (I) and the outer damage zone (O) of the corneal tissues on day 0 and day 2 were observed using Alizarin Red S staining. The morphology of the corneal tissue stained by Alizarin Red S was shown in FIG. 12, wherein the stained area (brown color) represented the corneal […] of the inner damage zone (I) and the unstained area represented the corneal endothelial cells of the outer zone (O). […] Refer to FIG. 14, the corneal endothelial cell density of the inner damage zone of the LPA-treated example was 1358±8 0.4 cells/mm^2, and the circularity and aspect ratio of the corneal endothelial cells were 0.68±0.15 and 2.39±1.14. However the corneal endothelial cell density of the inner damage zone of the comparative example was 900.0±198.4 cells/mm^2, and the circularity and aspect ratio of the corneal endothelial cells were 0.43±0.14 and 4.91±2.43. According to the results, the addition of LPA can stimulate cell proliferation of the damaged corneal tissue. Also, LPA enhanced the repopulation of the neighbor corneal endothelial cells to the damage zones."}, "[2]": {"tested_on": "corneal endothelial cells of rabbit corneal tissue", "assay": "Morphology of the corneal endothelial cells of the corneal tissue (ZO-1 immunostaining)", "format": "cell-based", "settings": "10 μmol/L LPA, 7 days", "experimental": "(§1) The rabbit corneal tissues were placed individually in the tissue culture dishes 100, cultivated with the tissue culture media (DMEM basal medium, 10% FBS, and 25 μg/mL gentamycin) added with 10 μmol/L LPA (Example) or without LPA (Comparative example), and incubated at 37° C. with 5% CO2 for 7 days, wherein a portion of the corneal epithelium layer of the rabbit corneal tissues faced toward the first direction A and contacted with air and the corneal endothelium layer contacted with the tissue culture media. The corneal endothelium layer was immunostained for ZO-1 on day 0 and day 7 for observing the cell morphology of the corneal endothelial cells of the corneal tissue."}, "[3]": {"tested_on": "corneal endothelial cells of rabbit corneal tissue", "assay": "Evaluation of the corneal endothelial cell density of the corneal tissue (tissue culture dish 100)", "format": "cell-based", "settings": "20 μmol/L LPA", "experimental": "The rabbit corneal tissues were placed individually in the tissue culture dishes 100, cultivated with the tissue culture media (DMEM basal medium, 10% FBS, and 25 μg/mL gentamycin) added with 20 μmol/L LPA (Example) or without LPA (Comparative example), and incubated at 37° C. with 5% CO2, wherein a portion of the corneal epithelium layer of the rabbit corneal tissues faced toward the first direction A and contacted with air and the corneal endothelium layer contacted with the tissue culture media. After 7 days of cultivation, the cell morphology and the analysis of cell density of the corneal endothelium layer were shown in FIG. 7 and FIG. 8. The density of the corneal endothelial cells of the example on day 0 was 3766.7±332.9 cells/mm^2, 4572.2±179.8 cells/mm^2 on day 5, and 4950.0±304.1 cells/mm^2 on day 7. […] According to the result, the corneal endothelial cell density may be increased in the LPA-treated example."}, "[4]": {"tested_on": "corneal endothelial cells of rabbit corneal tissue", "assay": "Evaluation of the cell proliferation of the corneal tissue (BrdU labeling)", "format": "cell-based", "settings": "10 μmol/L LPA, 7 days, BrdU from day 5 to day 7", "experimental": "as §1, with “Bromodeoxyuridine (BrdU)” for “The corneal endothelium layer”, “added to the culture media from” for “immunostained for ZO-1 on”, “5 to” for “0 and”, “proliferation” for “cell morphology”, “cells.” for “corneal endothelial cells of the corneal tissue.”"}, "[5]": {"tested_on": "human corneal stromal cells", "assay": "Gene expression analysis using cDNA microarray", "format": "cell-based", "settings": "20 μmol/L LPA, 2 days", "experimental": "(§2) The gene expression profiling and the cytokine of the human corneal stromal cells were analyzed using cDNA microarray chip and Cytokine Array G5 chip. The human corneal stromal cells were cultured with culture media (DMEM basal medium, 10% FBS, and 25 μg/mL gentamycin) added with 20 μmol/L LPA (served as an Example) or without adding LPA (Comparative example) and incubated at 37° C. with 5% CO2. After 2 days of cultivation, the total RNA from the human corneal stromal cells in example and comparative example were isolated with the TRIzol reagent and purified using RNeasy column. After amplification and labeling the total RNA samples, GeneChip hybridization was performed and a GeneArray G7 scanner was used to scan the results. The culture media from the example and the comparative example were collected and the cytokines were analyzed using a human cytokine antibody array. […] It was confirmed that LPA stimulated the proliferation of the endothelial cells of the corneal tissue via two pathways including directly affecting the endothelial cells and stimulating the secretion of CCL20 and IL-1β from the […]."}, "[6]": {"tested_on": "rabbit corneal endothelial cells", "assay": "Dose-response test: rabbit corneal endothelial cells co-cultivated with rabbit corneal stroma cells", "format": "cell-based", "settings": "20 μmol/L LPA, 5 days of cultivation, co-culture with corneal stroma cells", "experimental": "The tissue culture media (DMEM, 10% FBS, 25 μg/mL gentamycin) added with 0 μmol/L, 10 μmol/L, 20 μmol/L, and 100 μmol/L of LPA were used for co-cultivating the rabbit corneal endothelial cells and the rabbit corneal stroma cells at 37° C. with 5% CO2. After 5 days of cultivation, the cell number of the rabbit corneal endothelial cells of each groups were calculated and shown in FIG. 6. […] According to the result, the tissue culture media used for the following experiments was added with 20 μmol/L LPA."}, "[7]": {"tested_on": "corneal endothelial cells of transplanted damaged corneal tissue", "assay": "Evaluation of corneal tissue transplantation into rabbit eyes", "format": "in vivo", "settings": "damaged cornea cultivated 2 days with 20 μmol/L LPA, day 6", "experimental": "The damaged corneal tissues were prepared using the PVDF filter membrane described above (please refer to the above paragraph). Then, those damaged corneal tissues were placed individually in the tissue culture dishes 100, cultivated with the tissue culture media (DMEM basal medium, 10% FBS, and 25 μg/mL gentamycin) added with 20 μmol/L LPA (Example) or without LPA (Comparative example 1), and incubated at 37° C. with 5% CO2, wherein a portion of the corneal epithelium layer of the rabbit corneal tissues faced toward the first direction A and contacted with air and the corneal endothelium layer contacted with the tissue culture media. After 2 days of cultivation, the damaged corneal tissues were transplanted into rabbit eyes. In addition, total corneal endothelium scrapping and undamaged mock donor corneas were also prepared to serve as comparative examples 2 and 3. External eye photography was taken in the rabbits after transplantation on day 0 and day 6, respectively. Following sacrifice on day 6, the corneal endothelial cells were stained with Alizarin Red S for observations of the cell morphology of the corneal endothelial cells in all density zones (A) (average of high-density and low-density zones) and cell shape in low-density zone (L) were examined. […] Please refer to FIG. 16 showing the analysis of the corneal endothelial cell density, circularity, and aspect ratio. The corneal endothelial cell density of the example was 2200.0±90.1 cells/mm^2, and the circularity and the aspect ratio of the corneal endothelial cells of example 1 were 0.84±0.05 and 1.35±0.02. However, in comparative example 1, the cell density was 1700.0±288.3 cells/mm^2, the circularity was 0.69±0.12, and the aspect ratio was 2.12±1.13."}, "[8]": {"tested_on": "human corneal stromal cells", "assay": "Cytokine analysis of culture media using human cytokine antibody array", "format": "cell-based", "settings": "20 μmol/L LPA, 2 days", "experimental": "as §2"}, "[9]": {"tested_on": "corneal endothelial cells of human corneal residual tissue", "assay": "Proliferation and morphology of corneal endothelial cells of human corneal residual tissue (ZO-1 and Ki-67 immunostaining)", "format": "cell-based", "settings": "20 μmol/L LPA, Day 7, tissue immersed", "experimental": "The cell morphology, cell density, and cell proliferation of the present evaluation were performed through immunostaining.\nOne-third of the human corneal residual tissue samples were used for immunostaining for ZO-1 directly (Day 0), while the remaining two-thirds were immersed and placed endothelial side up in the tissue culture media (DMEM basal medium, 10% FBS, and 25 μg/mL gentamycin) added with 20 μmol/L LPA (served as an Example) or without adding LPA (Comparative example) and incubated at 37° C. with 5% CO2. 7 days later, the tissues were cut into halves and subjected to immunostaining for ZO-1 and Ki-67 to evaluate the effects of LPA treatment on corneal endothelial cell density and cell proliferation. […] The corneal endothelial cell density of the LPA-treated example and the comparative example were 2848.8 cells/mm^2±331.7 cells/mm^2 and 2004.7 cells/mm^2±220.2 cells/mm^2."}}, "data": [{"substance": "lysophosphatidic acid [LPA]", "values": [{"measurement": "aspect ratio of the corneal endothelial cells", "setting": "[1]; day 2, inner damage zone", "value": "2.39±1.14"}, {"measurement": "circularity of the corneal endothelial cells", "setting": "[1]; day 2, inner damage zone", "value": "0.68±0.15"}, {"measurement": "repopulation of the inner damage zone (I)", "setting": "[1]; two days after tissue cultivation", "value": "repopulated by neighbor corneal endothelial cells"}, {"measurement": "morphology of the corneal endothelial cells (ZO-1)", "setting": "[2]", "value": "not altered"}, {"measurement": "density of the corneal endothelial cells", "setting": "[3]; day 0", "value": "3766.7±332.9", "unit": "cells/mm^2"}, {"measurement": "density of the corneal endothelial cells", "setting": "[3]; day 5", "value": "4572.2±179.8", "unit": "cells/mm^2"}, {"measurement": "density of the corneal endothelial cells", "setting": "[3]; day 7", "value": "4950.0±304.1", "unit": "cells/mm^2"}, {"measurement": "BrdU labeling cells", "setting": "[4]", "value": "35.2%±16.1%"}, {"measurement": "Gene expression in stromal cells: 1L1RN (Interleukin 1 receptor antagonist)", "setting": "[5]", "value": 17.39, "unit": "fold change"}, {"measurement": "Gene expression in stromal cells: 1L7R (Interleukin 7 receptor)", "setting": "[5]", "value": 15.03, "unit": "fold change"}, {"measurement": "Gene expression in stromal cells: CCL5", "setting": "[5]", "value": 17.63, "unit": "fold change"}, {"measurement": "Gene expression in stromal cells: CCL7", "setting": "[5]", "value": 11.39, "unit": "fold change"}, {"measurement": "Gene expression in stromal cells: CCL8", "setting": "[5]", "value": 15.89, "unit": "fold change"}, {"measurement": "Gene expression in stromal cells: CCL20", "setting": "[5]", "value": 625.99, "unit": "fold change"}, {"measurement": "Gene expression in stromal cells: CSF3", "setting": "[5]", "value": 85.04, "unit": "fold change"}, {"measurement": "Gene expression in stromal cells: CXCL3", "setting": "[5]", "value": 11.31, "unit": "fold change"}, {"measurement": "Gene expression in stromal cells: CXCL5", "setting": "[5]", "value": 22.32, "unit": "fold change"}, {"measurement": "Gene expression in stromal cells: CXCL10", "setting": "[5]", "value": 20.97, "unit": "fold change"}, {"measurement": "Gene expression in stromal cells: EPGN", "setting": "[5]", "value": 10.85, "unit": "fold change"}, {"measurement": "Gene expression in stromal cells: ESM1", "setting": "[5]", "value": 20.11, "unit": "fold change"}, {"measurement": "Gene expression in stromal cells: IL1A (Interleukin 1 alpha)", "setting": "[5]", "value": 58.49, "unit": "fold change"}, {"measurement": "Gene expression in stromal cells: IL1B", "setting": "[5]", "value": 572.05, "unit": "fold change"}, {"measurement": "Gene expression in stromal cells: INHBA", "setting": "[5]", "value": 20.97, "unit": "fold change"}, {"measurement": "Gene expression in stromal cells: OLR1", "setting": "[5]", "value": 24.25, "unit": "fold change"}, {"measurement": "corneal endothelial cell proliferation (cell number)", "setting": "[6]", "value": "significantly stimulated corneal endothelial cell proliferation"}, {"measurement": "aspect ratio of the corneal endothelial cells", "setting": "[7]", "value": "1.35±0.02"}, {"measurement": "circularity of the corneal endothelial cells", "setting": "[7]", "value": "0.84±0.05"}, {"measurement": "corneal endothelial cell density", "setting": "[7]", "value": "2200.0±90.1", "unit": "cells/mm^2"}, {"measurement": "transparency of the transplanted corneal tissue", "setting": "[7]", "value": "remained transparent"}, {"measurement": "Cytokine content in media: CCL20", "setting": "[8]", "value": 3.26, "unit": "fold change"}, {"measurement": "Cytokine content in media: CSF3", "setting": "[8]", "value": 0.85, "unit": "fold change"}, {"measurement": "Cytokine content in media: IL1A", "setting": "[8]", "value": 0.80, "unit": "fold change"}, {"measurement": "Cytokine content in media: IL1B", "setting": "[8]", "value": 1.73, "unit": "fold change"}, {"measurement": "Ki-67-positive cells", "setting": "[9]", "value": "11.86%±2.80%"}, {"measurement": "corneal endothelial cell density", "setting": "[9]", "value": 2848.8, "unit": "cells/mm^2"}, {"measurement": "morphology of corneal endothelial cells (ZO-1)", "setting": "[9]", "value": "not altered"}]}]}
